Tests used:
rats [1] = experiment: Learned helplessness model of depression in rats; type: in vivo, rat (male SD)
Source text: From the effects of existing antidepressants and the like on this system, this test is deemed a higher level animal model in rodents.
The male SD rats (190 to 260 g; Charles River Japan Inc.) were used in this study. On Day 1 of experiment, a partition board was placed in the center of the shuttle box to create two compartments so that the animals could not move from one compartment to another (220×200×260 mm). In each compartment, one rat was placed. The animals were retained in the shuttle box for 50 minutes and exposed to electrical shocks (IES) given via stainless floor grids with the light on. […]
On Day 2 of experiment, the partition board in the center of the shuttle box was removed and replaced by a hurdle 2 cm in height to create two comportments so that the animals could move from one compartment to another. […] Animal's behavior was evaluated according to the following procedures.
FR1: A buzzer was activated for 10 seconds. […] This procedure counted as one trial, and was continuously repeated 15 times.
FR2: Electric stimuli (0.5 mA) were applied for 10 seconds to a rat via the floor grids in the compartment where the animal stayed. […] This procedure counted as one trial, and was continuously repeated 15 times. […]

mice = experiment: Forced swim test in mice; type: in vivo, mouse (male ddY-strain)
Source text: The forced swim test in rats and mice is widely used for test system which evaluates antidepressant activities (Arch. Int. Pharmacodyn. Ther. 229, p.327 (1977)). The forced swim test is means for evaluating depressive state using the length of time during which the animal ceases its escape behavior due to a sense of helplessness (immobility time) as an index thereof by placing a mouse or a rat in water in an inescapable cylinder. Since immobility time is shortened by existing antidepressants, this is known as an animal model of depression. The male ddY-strain mice (20 to 29 g; Japan SLC, Inc.) were used in this study. A transparent acrylic water bath 10 cm in diameter and 25 cm in height was filled with water at 23° C.±1° C. to a depth of 10 cm. Each mouse was slowly placed in the water bath. At 2 minutes after placement in the bath, immobility time (duration during which no escape behavior was observed) was measured for 4 minutes. The test compound was used for the test in suspension in distilled water for injection (manufactured by Otsuka Pharmaceutical Co.,) containing 0.5 w/v % MC (methylcellulose). […] The antidepressant activity of the test compound was evaluated with the immobility time for the vehicle control group and that for the test compound dose group as indexes. […]

rats [2] = experiment: Forced swim test in rats; type: in vivo, rat (male SD-strain)
Source text: The forced swim test in rats and mice is widely used for test system which evaluates antidepressant activities (Arch. Int. Pharmacodyn. Ther. 229, p.327 (1977)). The forced swim test is means for evaluating depressive state using the length of time during which the animal ceases its escape behavior due to a sense of helplessness (immobility time) as an index thereof by placing a mouse or a rat in water in an inescapable cylinder. Since immobility time is shortened by existing antidepressants, this is known as an animal model of depression. The male SD-strain rats (200 to 270 g; Charles River Japan Inc.) were used in this study. A transparent acrylic water bath 18 cm in diameter and 40 cm in height was filled with water at 25° C.±1° C. to a depth of 19 cm. Each rat was slowly placed in the water bath, allowed to stand for 15 minutes, then removed from the bath and dried with a piece of paper towel. The animals were then dried under a table light for 15 minutes and returned to the respective cages (induction of pathological condition). On the following day, the rats were slowly placed in the same water bath. Immediately, immobility time was measured for 5 minutes. […] The antidepressive action of the test compound was evaluated with the immobility time for the vehicle control group and that for the test compound dose group as indexes. […]

Structure (SMILES): Cc1ccc(C(=O)Nc2nc(-c3ccco3)c(C(=O)C3CCOCC3)s2)cn1 [(IC)]
- escape rate (escape response %) (rats [1]; rats with IES loading, FR2 session, dose of 0.3 mg/kg orally 1 hour before the FR1 session): 88.7±6.7%
- action on the escape rate reductions by IES loading in the FR2 session (rats [1]; rats, single oral dose, in words): significant ameliorating action
- immobility time (mice; mice, 0.1 mg/kg orally 1 hour before the test, measured for 4 minutes, vehicle 179.0 ± 15.2): 53.1 ± 11.0 s
- immobility time compared with that for the vehicle control group (mice; mouse, in words): shortened
- immobility time compared with that for the vehicle control group (rats [2]; rat, in words): shortened
- immobility time (rats [2]; rats, 0.1 mg/kg orally 1 hour before the test, measured for 5 minutes, vehicle 204.0 ± 21.0): 81.5 ± 15.1 s

Reference: patent US9249135B2, “Therapeutic agent for mood disorders” (KYOWA HAKKO KIRIN CO., LTD., priority 2009, dated 2016)
